Source: US20180244629A1, “Compounds And Compositions For The Treatment Of Cancer” (The Broad Institute, Inc., priority 2013, published 2018)
Read-outs that look alike come from different tables or passages of the source. Blank lines part the entries; values can stand above or below the compound they belong to.

Assays:
HEL = HEL cell line viability (Cell Titer Glo); assay type: cell-based
Protocol: (§1) Compounds as shown were tested against various cells lines in vitro according to the methods described herein. Cells are plated in 384-well format in a total volume of 40 μl. Indicated compound concentrations were added 24 hrs after plating the cells. After 48 hrs cell viability was determined using Cell Titer Glo® Luminescent Cell Viability Assay.

A549 cells = assay: A549 Cytotoxicity Assay (Cell Titer Glo viability); assay type: cell-based
Protocol: (§2) A549 Cytotoxicity Assay Protocol. Day 0: A549 cells (ATCC, A549 CCL-185) are grown to 95% confluence in RPMI, 10% FBS/Pen/Strep/L-Glutamine. Day 1: Plate cells (1000 per well) in 40 μl culturing media using Corning 384-well plates (3570), incubate in standard TC conditions (5% CO2, 95% humidity, 37° C.) for 24 h. Day 2: Dilute each concentration of a half-log serial dilution of compound (1 mM-100 nM) 1:200 in culturing media and add […] (50 μl total volume) of that dilution to designated wells (8 replicates per concentration). The final dilution will be 1000×([…]). Day 4: Remove plate from incubator to cool for 20 minutes to room temperature. Add 40 μl of a 25% Promega Cell Titer Glo solution (diluted 1:3 with room temperature PBS) with Thermo combi or multichannel and incubate for 10 min. Read on Perkin-Elmer EnVision with US LUM settings for 0.1 second per well.
A549 Assay Protocol. Day 0: A549 cells (ATCC) are grown in a Triple flask (NUNC) to ˜95% confluence (TrypLE Phenol Red free) and resuspended for dispensing at 25,000 cells/mL of DMEM, 10% FBS/Pen/Strep/L-Glutamine (using the TAP Compact SelecT automated cell culture system). Day 1: Plate cells at 1000 per well in 40 uL media (DMEM/10% FBS/Pen/Strep/L-Glutamine) using Corning 8867BC 384 well plates; incubate in standard TC conditions (5% CO2; 95% humidity, 37° C.) for 24 hours (Compact SelecT). Day 2: Add 100 nL compound per well at dose into 40 uL assay volume using a pin tool (CyBi Well). Pin 100 nL cytotoxic compounds, mitoxantrone (CID 4212) to positive control wells to a final concentration of 10 μM (100 nL 4 mM DMSO stock). Incubate for […] at 37° C. in Liconic incubator, 95% humidity 5% CO2. Day 4: Remove plate from incubator, cool for 15 minutes to room temperature; add 20 μL 50% Promega CellTiterGlo (diluted 1:1 with PBS, pH 7.4) with Thermo Combi. Incubate at room temperature for 5 minutes. Read plates on Perkin-Elmer EnVision with standard luminescence settings for 0.1 sec per well.
as §1
as §1, with “Known PDE3 inhibitors” for “Compounds”, “shown below” for “shown”

COLO741 cells = assay: COLO741 Assay (Cell Titer Glo viability); assay type: cell-based; settings: 48 hrs, Cell Titer Glo, read-out: EC50 COLO741
Protocol: as §2, with “C0L0741” for “A549 Cytotoxicity”, “C0L0741” for “A549”, “(ECACC, C0L0741 93052621)” for “(ATCC, A549 CCL-185)”, “(1500” for “(1000”, “minutes.” for “min.”
as §1

HeLa cells [1] = assay: PARP cleavage assay (immunoblot); assay type: cell-based
Protocol: The mechanism of cell death was determined after contacting the cells with the compound in Example 1. […] Cells were treated for 24 h with the indicated concentrations of each agent, lysed, and immunoblotted with anti-PARP or anti-actin.

H2122 cells = assay: H2122 Assay (Cell Titer Glo viability); assay type: cell-based; settings: 48 hrs, Cell Titer Glo, read-out: EC50 H2122
Protocol: Selective toxicity in cell line panel. H2122 Assay Protocol Day 0: H2122 cells (ATCC, H2122 CCL-5985) are grown to 95% confluence in RPMI, 10% FBS/Pen/Strep/L-Glutamine. Day 1: Plate cells (750 per well) in 40 μl culturing media using Corning 384-well plates (3570), incubate in standard TC conditions (5% CO2, 95% humidity, 37 degrees C.) for 24 h. Day 2: Dilute each concentration of a half-log serial dilution of compound (1 mM-100 nM) 1:200 in culturing media and add 10 μl (50 μl total volume) of that dilution to designated wells (8 replicates per concentration). The final dilution will be 1000×([…]). Day 4: Remove plate from incubator to cool for 20 minutes to room temperature. Add 40 μl of a 25% Promega Cell Titer Glo solution (diluted 1:3 with room temperature PBS) with Thermo combi or multichannel and incubate for 10 minutes. Read on Perkin-Elmer EnVision with US LUM settings for 0.1 second per well.
as §1

HeLa cells [2] = assay: HeLa Cytotoxicity Assay (Cell Titer Glo viability); assay type: cell-based
Protocol: HeLa Cytotoxicity Assay Protocol: Day 0: HeLa cells (ATCC, HeLa CCL-2) are grown to 95% confluence in DMEM, 10% FBS/Pen/Strep/L-Glutamine. Day 1: Plate cells (1000 per well) in 40 μl culturing media using Corning 384-well plates (3570), incubate in standard TC conditions (5% CO2, 95% humidity, 37 degrees C.) for 24 hours. Day 2: Dilute each concentration of a half-log serial dilution of compound (1 mM-100 nM) 1:200 in culturing media and add 10 μl (50 μl total volume) of that dilution to designated wells (8 replicates per concentration). The final dilution will be 1000×(1 μM-100 pM). Day 4: Remove plate from incubator to cool for 20 minutes to room temperature. Add 40 μl of a 25% Promega Cell Titer Glo solution (diluted 1:3 with room temperature PBS) with Thermo combi or multichannel and incubate for 10 minutes. Read on Perkin-Elmer EnVision with US LUM settings for 0.1 second per well.
as §1
as §1, with “Known PDE3 inhibitors” for “Compounds”, “shown below” for “shown”

PDE3 = settings: reference value; read-out: PDE3 activity (ref); cited from earlier work
[3] = Homo sapiens, A549, 48 hrs, Cell Titer Glo, read-out: EC50 A549
[4] = Homo sapiens, HeLa, 48 h, Cell Titer Glo, read-out: EC50 HeLa
[5] = 48 hrs, Cell Titer Glo, read-out: EC50 A549
[6] = Homo sapiens, HeLa, known PDE3 inhibitors, Mean (n = 3), read-out: Potency (EC50 nM) HeLa
[7] = Homo sapiens, A549, known PDE3 inhibitors, Mean (n = 3), read-out: Potency (EC50 nM) A549

EC50 (COLO741 cells; Homo sapiens, COLO-741, 48 h): 16.5 nM
SMILES: C[C@@H]1CC(=O)NN=C1c1ccc(N2CCOCC2)cc1 [drawing 151]
EC50 (HEL; Homo sapiens, HEL, 48 h): 38.7 nM
EC50 (A549 cells; [3]): > 10000 nM

SMILES: CN[C@@H]1C[C@H]2O[C@@](C)([C@@H]1OC)n1c3ccccc3c3c4c(c5c6ccccc6n2c5c31)C(=O)NC4 [staurosporine]
cell death (HeLa cells [1]; Hela cells, 10 μM, 24 h): almost complete cell death

EC50 (H2122 cells): 3.62 nM
EC50 (COLO741 cells; Homo sapiens, COLO-741, 48 h): 3.97 nM
SMILES: CCN(CC)c1ccc(C2=NNC(=O)C[C@H]2C)cc1[N+](=O)[O-] [drawing 141]
EC50 (HEL; Homo sapiens, HEL, 48 h): 13.5 nM
EC50 (HeLa cells [2]; [4]): 2.63 nM
EC50 (A549 cells; [3]): > 10000 nM

EC50 (H2122 cells; Homo sapiens, NCI-H2122, 48 h): 11.8 nM
EC50 (COLO741 cells): 14.5 to 18.9 nM
SMILES: C[C@@H]1CC(=O)NN=C1c1ccc(N2CCOCC2)cc1 [drawing 138]
EC50 (HEL; 48 hrs): 25.7 to 58.4 nM
EC50 (HeLa cells [2]; [4]): 10.3 to 12.1 nM
EC50 (A549 cells; [5]): > 10000 nM

SMILES: CN(C(=O)CCCOc1ccc2[nH]c(=O)ccc2c1)C1CCCCC1 [Cllostamide, reference compound]
EC50 (HeLa cells [2]; [6]): > 10000 nM
IC50 (PDE3): 27 nM
EC50 (A549 cells; [7]): > 10000 nM

EC50 (H2122 cells; Homo sapiens, NCI-H2122, 48 h): 0.8 nM
EC50 (COLO741 cells; Homo sapiens, COLO-741, 48 h): 0.76 nM
SMILES: CCNc1ccc(C2=NNC(=O)C[C@H]2C)cc1[N+](=O)[O-] [drawing 142]
EC50 (HEL; Homo sapiens, HEL, 48 h): 3.98 nM
EC50 (HeLa cells [2]; [4]): 0.461 nM
EC50 (A549 cells; [3]): > 10000 nM

EC50 (H2122 cells): 7.4 nM
EC50 (COLO741 cells): 3.6 to 4.4 nM
SMILES: CCN(CC)c1ccc(C2=NNC(=O)C[C@H]2C)cc1[N+](=O)[O-] [drawing 145]
EC50 (HEL; 48 hrs): 11.3 to 16.2 nM
EC50 (HeLa cells [2]; 48 hrs, Cell Titer Glo, read-out: EC50 HeLa): 4.05 nM
EC50 (A549 cells; [5]): > 10000 nM

SMILES: COc1cc(-c2ccc(=O)[nH]n2)ccc1OC(F)F [Zardaverine, reference compound]
EC50 (HeLa cells [2]; [6]): 56 nM
IC50 (PDE3): 2500 nM
EC50 (A549 cells; [7]): > 10000 nM

SMILES: COc1cc2c(cc1OC)-c1c/c(=N\c3c(C)cc(C)cc3C)n(C)c(=O)n1CC2 [Trequinsin, reference compound]
EC50 (HeLa cells [2]; [6]): > 10000 nM
IC50 (PDE3): 0.25 nM
EC50 (A549 cells; [7]): > 10000 nM

SMILES: O=C1CCC(c2ccc(-n3ccnc3)cc2)=NN1 [Imazodan, reference compound]
EC50 (HeLa cells [2]; [6]): 720 nM
IC50 (PDE3): 1300 nM
EC50 (A549 cells; [7]): > 10000 nM

SMILES: O=C1CN2Cc3c(ccc(Cl)c3Cl)N=C2N1 [Anagrelide, reference compound]
EC50 (HeLa cells [2]; [6]): 8.2 nM
IC50 (PDE3): 36 nM
EC50 (A549 cells; [7]): > 10000 nM

SMILES: OO [hydrogen peroxide]
mechanism of cell death (PARP cleavage) (HeLa cells [1]; Hela cells treated for 24 h, anti-PARP immunoblot, FIG. 3): caused necrosis but not apoptosis
